The structures appear in SMILES notation. “And” between values parts separate entries of the source, which are not always exact repeats. Equal values may be shown once. Inconclusive results and toxic doses are left out.

This test relates to BDF1 mice, B16 melanoma ip, median survival T/C. The experiment in a line: NCI In Vivo Anticancer Drug Screen. Data for tumor model B16 Melanoma (intraperitoneal) in B6D2F1 (BDF1) mice. To be noted: endpoint: median survival time, higher = longer survival. In short, it runs like this: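 Transplantable tumor model; survival or tumor size measured; reported as T/C, treated over vehicle control.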

[1] abbreviates: dose: 12.5 mg/kg/injection, schedule: Q01DX009 (ip), vehicle: Klucel (hydroxypropylcellulose) (HPC).
Where [2] appears, read: dose: 25.0 mg/kg/injection, schedule: Q01DX009 (ip), vehicle: Klucel (hydroxypropylcellulose) (HPC).
Setting [3] is: dose: 50.0 mg/kg/injection, schedule: Q01DX009 (ip), vehicle: Klucel (hydroxypropylcellulose) (HPC).
[4] abbreviates: dose: 6.25 mg/kg/injection, schedule: Q01DX009 (ip), vehicle: Klucel (hydroxypropylcellulose) (HPC).
Where [5] appears, read: dose: 100.0 mg/kg/injection, schedule: Q01DX009 (ip), vehicle: saline with Tween-80.
Where [6] appears, read: dose: 100.0 mg/kg/injection, schedule: Q01DX009 (ip), vehicle: Klucel (hydroxypropylcellulose) (HPC).
Setting [7] is: dose: 200.0 mg/kg/injection, schedule: Q01DX009 (ip), vehicle: Klucel (hydroxypropylcellulose) (HPC).
[8] abbreviates: dose: 1.56 mg/kg/injection, schedule: Q01DX009 (ip), vehicle: Klucel (hydroxypropylcellulose) (HPC).

Consider `Cc1noc(C)c1CON`, for which the T/C is 118 % of control (dose: 12.5 mg/kg/injection, schedule: Q04DX003 (ip), vehicle: saline); 118 % of control (dose: 25.0 mg/kg/injection, schedule: Q04DX003 (ip), vehicle: saline); 123 % of control (dose: 50.0 mg/kg/injection, schedule: Q04DX003 (ip), vehicle: saline).

With `C#CCOCC(O)CN` (stereo unspecified), the T/C is 104 % of control (dose: 100.0 mg/kg/injection, schedule: Q04DX003 (ip), vehicle: saline); 100 % of control (dose: 200.0 mg/kg/injection, schedule: Q04DX003 (ip), vehicle: saline); 102 % of control (dose: 400.0 mg/kg/injection, schedule: Q04DX003 (ip), vehicle: saline).

For the compound `CC1=C(/C=C/C(C)=C/C=C/C(C)=C/CO)C(C)(C)CCC1`, the T/C is 90 % of control and 100 % of control (dose: 4.0 mg/kg/injection, schedule: Q01DX009 (ip), vehicle: saline with Tween-80); 99 % of control and 101 % of control (dose: 8.0 mg/kg/injection, schedule: Q01DX009 (ip), vehicle: saline with Tween-80); 97 % of control and 103 % of control (dose: 16.0 mg/kg/injection, schedule: Q01DX009 (ip), vehicle: saline with Tween-80); 90 % of control and 105 % of control (dose: 32.0 mg/kg/injection, schedule: Q01DX009 (ip), vehicle: saline with Tween-80).

Consider `CC(Cc1ccccc1)NCCn1cnc2c1c(=O)n(C)c(=O)n2C` (stereo unspecified), for which the T/C (dose: 3.12 mg/kg/injection, schedule: Q01DX009 (ip), vehicle: saline) was 112 % of control; the T/C (dose: 6.25 mg/kg/injection, schedule: Q01DX009 (ip), vehicle: saline) is 115 % of control; the T/C (dose: 12.5 mg/kg/injection, schedule: Q01DX009 (ip), vehicle: saline) was 100 % of control; the T/C (dose: 25.0 mg/kg/injection, schedule: Q01DX009 (ip), vehicle: saline) is 109 % of control; the T/C (dose: 50.0 mg/kg/injection, schedule: Q01DX009 (ip), vehicle: saline) is 115 % of control.

Consider `NC1=CC(=O)c2ccccc2C1=O`, for which the T/C runs as follows: under setting [1], 96 % of control; under setting [2], 99 % of control; under setting [3], 101 % of control.

With `O=C(O)C(=O)O.[U]`, the T/C was 88 % of control (dose: 4.0 mg/kg/injection, schedule: Q01DX009 (ip), vehicle: Klucel (hydroxypropylcellulose) (HPC)); 93 % of control (dose: 8.0 mg/kg/injection, schedule: Q01DX009 (ip), vehicle: Klucel (hydroxypropylcellulose) (HPC)); 87 % of control (dose: 16.0 mg/kg/injection, schedule: Q01DX009 (ip), vehicle: Klucel (hydroxypropylcellulose) (HPC)).

As to `C=C1C(=O)OC2C3OC(C)(CCC(O)C3COC(C)=O)CC(OC(=O)/C(=C/C)COC(C)=O)C12` (stereo unspecified), the T/C reads like this: (dose: 0.04 mg/kg/injection, schedule: Q01DX009 (ip), vehicle: suspension in saline) 111 % of control; (dose: 0.09 mg/kg/injection, schedule: Q01DX009 (ip), vehicle: suspension in saline) 109 % of control; (dose: 0.18 mg/kg/injection, schedule: Q01DX009 (ip), vehicle: suspension in saline) 107 % of control; (dose: 0.37 mg/kg/injection, schedule: Q01DX009 (ip), vehicle: suspension in saline) 91 % of control; under setting [4], 91 % of control; under setting [1], 98 % of control. Also, under setting [2], the T/C was 105 % of control.

On to `COc1ccc(C2=C(c3ccccc3)C(c3ccccc3)=C(c3ccc(OC)cc3)C2=O)cc1`, for which the T/C is, setting by setting: (dose: 50.0 mg/kg/injection, schedule: Q01DX009 (ip), vehicle: saline with Tween-80) 94 % of control; under setting [5], 95 % of control; (dose: 200.0 mg/kg/injection, schedule: Q01DX009 (ip), vehicle: saline with Tween-80) 95 % of control; (dose: 400.0 mg/kg/injection, schedule: Q01DX009 (ip), vehicle: saline with Tween-80) 94 % of control.

Regarding `Cc1cnc2c(=N)n(C(=O)C(F)(F)F)n(C)c2n1`, the T/C reads like this: under setting [6], 90 % of control; under setting [7], 94 % of control.

For `Cc1ccc(NC(=O)Nc2ccc(Cl)c(Cl)c2)cc1Cl`, the T/C runs as follows: under setting [2], 96 % of control; under setting [3], 105 % of control.

As for `CCCN(C(=O)CCl)c1ccccc1`, the T/C is 94 % of control (dose: 3.13 mg/kg/injection, schedule: Q01DX009 (ip), vehicle: Klucel (hydroxypropylcellulose) (HPC)); 91 % of control under setting [4]; 92 % of control under setting [1].

Turning to `C(=C\c1ccccc1)/C[P+](c1ccccc1)(c1ccccc1)c1ccccc1`, the T/C (dose: 0.06 mg/kg/injection, schedule: Q01DX009 (ip), vehicle: saline sonified) is 100 % of control; the T/C (dose: 1.25 mg/kg/injection, schedule: Q01DX009 (ip), vehicle: saline sonified) is 93 % of control; the T/C (dose: 2.5 mg/kg/injection, schedule: Q01DX009 (ip), vehicle: saline sonified) is 97 % of control; the T/C (dose: 5.0 mg/kg/injection, schedule: Q01DX009 (ip), vehicle: saline sonified) was 91 % of control.

For `CC(=O)Nc1ccc([N+](=O)[O-])cc1`, the T/C reads like this: (dose: 12.5 mg/kg/injection, schedule: Q01DX009 (ip), vehicle: alcohol) 95 % of control; (dose: 25.0 mg/kg/injection, schedule: Q01DX009 (ip), vehicle: alcohol) 102 % of control; (dose: 50.0 mg/kg/injection, schedule: Q01DX009 (ip), vehicle: alcohol) 93 % of control; under setting [5], 88 % of control.

Regarding `C/C(=N/O)[c-]1[c-][c-][c-][c-]1.[Fe].[c-]1[c-][c-][cH-][c-]1`, the T/C is 91 % of control (dose: 3.13 mg/kg/injection, schedule: Q01DX009 (ip), vehicle: saline with Tween-80); 98 % of control (dose: 3.13 mg/kg/injection, schedule: Q04DX003 (ip), vehicle: saline with Tween-80); 100 % of control (dose: 6.25 mg/kg/injection, schedule: Q01DX009 (ip), vehicle: saline with Tween-80); 96 % of control (dose: 6.25 mg/kg/injection, schedule: Q04DX003 (ip), vehicle: saline with Tween-80); 97 % of control (dose: 12.5 mg/kg/injection, schedule: Q01DX009 (ip), vehicle: saline with Tween-80); 94 % of control (dose: 12.5 mg/kg/injection, schedule: Q04DX003 (ip), vehicle: saline with Tween-80).

In the case of `N[C@H](C(=O)O)[C@@H]1CC(Cl)=NO1`, the T/C was 93 % of control and 96 % of control and 102 % of control (dose: 0.25 mg/kg/injection, schedule: Q01DX009 (ip), vehicle: saline); 112 % of control (dose: 0.75 mg/kg/injection, schedule: Q01DX009 (ip), vehicle: saline); 110 % of control (dose: 1.5 mg/kg/injection, schedule: Q01DX009 (ip), vehicle: saline); 114 % of control (dose: 3.0 mg/kg/injection, schedule: Q01DX009 (ip), vehicle: saline); 156 % of control (dose: 6.0 mg/kg/injection, schedule: Q01DX009 (ip), vehicle: saline); 57 % of control (dose: 12.0 mg/kg/injection, schedule: Q01DX009 (ip), vehicle: saline).

Consider `CC(=O)C1(O)Cc2c(O)c3c(c(O)c2C(OC2CC(N)C(O)C(C)O2)C1)C(=O)c1ccccc1C3=O` (stereo unspecified), for which the T/C is 117 % of control (dose: 0.16 mg/kg/injection, schedule: Q01DX001 (ip), vehicle: water); 121 % of control (dose: 0.31 mg/kg/injection, schedule: Q01DX001 (ip), vehicle: water); 123 % of control (dose: 0.63 mg/kg/injection, schedule: Q01DX001 (ip), vehicle: water); 94 % of control (dose: 1200.0 micrograms/kg/injection, schedule: Q04DX003 (ip), vehicle: water).

Regarding `Clc1ccc(/C(=[C](\[Hg]/[C](=C(\c2ccccc2)c2ccc(Cl)cc2)c2ccccc2)c2ccccc2)c2ccccc2)cc1`, the T/C is, setting by setting: under setting [6], 105 % of control; under setting [7], 100 % of control; (dose: 400.0 mg/kg/injection, schedule: Q01DX009 (ip), vehicle: Klucel (hydroxypropylcellulose) (HPC)) 94 % of control.

On to `N#Cc1ccc(Br)cc1[N+](=O)[O-]`, for which the T/C is, setting by setting: (dose: 0.39 mg/kg/injection, schedule: Q01DX009 (ip), vehicle: Klucel (hydroxypropylcellulose) (HPC)) 93 % of control; (dose: 0.78 mg/kg/injection, schedule: Q01DX009 (ip), vehicle: Klucel (hydroxypropylcellulose) (HPC)) 93 % of control; under setting [8], 106 % of control.

Regarding `CC(C)NNC(C)Cc1ccccc1` (stereo unspecified), the T/C is, setting by setting: under setting [8], 91 % of control; (dose: 3.12 mg/kg/injection, schedule: Q01DX009 (ip), vehicle: Klucel (hydroxypropylcellulose) (HPC)) 86 % of control; under setting [4], 86 % of control; under setting [1], 91 % of control; under setting [2], 97 % of control.

With `Cc1ccc(Cl)cc1NC(=O)c1ccccc1Cl`, the T/C is 108 % of control under setting [6] and 98 % of control under setting [7].

These data come from PubChem BioAssay AID192 (DTP/NCI, 2004).
